Test results: patent US20230242616A1, “CHEMOKINE-SELECTIVE CXCR4 ECTODOMAIN-DERIVED (POLY)PEPTIDE” (Ludwig-Maximilians-Universität München, priority 2020, published 2023)
Entries after “also recorded” stand apart in the source; their conditions may differ. Where two headings read alike, the source gives them in different places. Where a SMILES comes first, the peptide text is derived from it. [ ]: non-standard residue; d: D form. 12Ado = NCCCCCCCCCCCC(=O)O; Aoc = NCCCCCCCC(=O)O; Ahx = NCCCCCC(=O)O; AEA = NCCOCC(=O)O

Experiments:
[1] = molecular target: T1, MIF (Homo sapiens, UniProt P14174); assay: Fluorescence spectroscopic titration, binding to MIF
T1 construct: made in house
T1 sequence (P14174 2-115): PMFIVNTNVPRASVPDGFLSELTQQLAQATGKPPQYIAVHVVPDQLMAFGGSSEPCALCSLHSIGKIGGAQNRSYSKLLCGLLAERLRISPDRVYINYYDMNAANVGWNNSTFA
Procedure: (§1) Fluorescence spectroscopy. Fluorescence spectroscopic titrations were performed as described^28, 32. Fluorescence spectra were recorded using a JASCO FP-6500 fluorescence spectrophotometer. […] Apparent KD values (app. KD) were calculated assuming a 1/1 binding model^32.

[2] = molecular target: T2, CXCL12 (Homo sapiens, UniProt P48061); assay: Fluorescence spectroscopic titration, binding to CXCL12
T2 construct: purchased Peprotech (or a gift of Dr. von Hundelshausen, LMU Munich)
Procedure: as §1

[3] = system: primary human monocyte-derived macrophages; assay: Dil-LDL uptake / foam cell formation, MIF-mediated; assay type: cell-based
Procedure: Dil-LDL uptake/foam cell formation. […] After washing with imaging solution (MEM without phenol red containing 30 mM HEPES, 0.5 g/L NaHCO3, pH 7.4, and 0.2% BSA), cells were exposed to 50 μg/mL 1,1′-dioctadecyl-3,3,3′3′-tetra-methylindocarbocyanine-labeled LDL (Dil-LDL) for 30 min at 4° C. followed by incubation at 37° C. for 20 min. Cells were washed with ice-cold imaging solution (pH 3.5), fixed, and counter-stained with Hoechst 33258.

[4] = Solubility / biophysical properties of next generation mimics
[5] = Estimated solubility index by CD spectroscopy; assay type: physicochemical
Procedure: Circular dichroism (CD) spectroscopy. […] Far-UV CD measurements were carried out between 195 and 250 nm. The response time was set at 1 s, intervals at 0.1 nm, and bandwidth at 1 nm. All spectra were measured at RT and represent an average of three recorded spectra. Scans were recorded for the ectodomain mimic peptides at a concentration of 1-20 μM in 10 mM sodium phosphate buffer, pH 7.4, containing 1% HFIP, following dilution of freshly made peptide stock solution in HFIP (4° C.) into the buffer-containing cuvette. […] The background spectrum of buffer/1% HFIP alone was subtracted from the spectra of the peptides.

[6] = system: human monocytes; assay: 3D migration of monocytes elicited by MIF (time-lapse microscopy); assay type: cell-based
Excerpt: Isolation of human peripheral blood-derived monocytes. Human peripheral blood-derived monocytes were isolated as described^14. Briefly, blood was collected from healthy donors or buffy coat obtained from the blood bank of Munich University Hospital, mixed 1:1 with PBS, and PBMCs isolated by Ficoll-Paque Plus gradient (GE Healthcare). Monocytes were purified by negative depletion using the Monocyte Isolation Kit II (Miltenyi). Monocyte purity was verified by flow cytometry using an anti-CD14 antibody (Miltenyl) and was 95-98%. […] The isolation of PBMCs from donor blood was approved by the local ethics committee of LMU Munich. 3D migration of human peripheral blood-derived monocytes by time-lapse microscopy. The 3D-migration behavior of human monocytes was assessed by time-lapse microscopy and individual cell tracking using the 3D chemotaxis μ-Slide system from Ibidi GmbH (Munich, Germany), adapting the established Ibidi dendritic cell protocol for human monocytes. […] Cell motility was monitored performing time-lapse imaging every 1 min at 37° C. for 2 h using a Leica inverted DMi8-Life Cell Imaging System equipped with a DMC2900 Digital Microscope Camera with CMOS sensor and live cell-imaging software (Leica Microsystems, Wetzlar, Germany). Images were imported as stacks to ImageJ software and analyzed with the manual tracking and chemotaxis/migration tools (Ibidi GmbH).

[7] = system: human monocyte-derived macrophages; details: read-out: IC50 of MIF-triggered Dil-oxLDL uptake; lower threshold of effect size roughly 50%
[8] = system: primary mouse spleen B lymphocytes; assay: Transwell chemotaxis of B cells elicited by MIF; assay type: cell-based; details: 16 nM MIF
Procedure: Chemotaxis analysis of murine B cells. A Transwell-based assay was used as described previously^34. Briefly, splenic B cells were isolated by negative depletion using a Pan B Cell Isolation Kit (Miltenyi Biotec. Bergisch Gladbach, Germany). Purity of the cells was between 95 and 99%. […] Chemotaxis was followed for 4 h at 37° C. in a humidified atmosphere of 5% CO2. Migrated cells were counted by flow cytometry using CountBright™ Absolute Counting Beads (Molecular Probes-Invitrogen).

[9] = Alexa-488-MIF/ngm app. Kd (±SD), aqueous 1 × b, pH 7.4, 1% HFIP
[10] = Fluos-ngm/MIF app. Kd (±SD), aqueous 1 × b, pH 7.4, 1% HFIP
[11] = read-out: Alexa-488-MIF/ngm app. Kd (±SD), aqueous 1 × b, pH 7.4, 1% HFIP

T2 sequence (P48061 22-93): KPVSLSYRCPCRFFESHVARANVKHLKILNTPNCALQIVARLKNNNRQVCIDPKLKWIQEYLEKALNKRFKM

## CC(C)C[C@H](NC(=O)[C@H](CC(=O)O)NC(=O)[C@H](CC(N)=O)NC(=O)[C@@H]1CCCN1C(=O)[C@H](Cc1ccc(O)cc1)NC(=O)[C@H](Cc1ccccc1)NC(=O)[C@H](CCCNC(=N)N)NC(=O)[C@H](CC(=O)O)NC(=O)CCCCCCCNC(=O)[C@H](CCCCN)NC(=O)[C@H](CS)NC(=O)[C@H](CC(C)C)NC(=O)[C@H](Cc1ccccc1)NC(=O)[C@H](CC(N)=O)NC(=O)CNC(=O)[C@H](Cc1ccccc1)NC(=O)[C@H](Cc1ccc(O)cc1)NC(=O)[C@@H](N)Cc1c[nH]c2ccccc12)C(=O)N[C@@H](Cc1c[nH]c2ccccc12)C(N)=O [msR4M-L4] (H-WYFGNFLCK[Aoc]DRFYPNDLW-NH2)
[1]; [9]
  Kd: 43.2 nM
[1]; [10]
  Kd: 11.9 nM
[2]
  binding to CXCL12 (in words): essentially no binding affinity for CXCL12
[3]
  Atherogenic inhibitory activity (Dil-LDL uptake): 80% of % of full-length msR4M-L1
[4]
  solubility properties (in words): less favorable solubility properties

## CC(C)C[C@H](NC(=O)[C@H](CC(=O)O)NC(=O)[C@H](CC(N)=O)NC(=O)[C@@H]1CCCN1C(=O)[C@H](Cc1ccc(O)cc1)NC(=O)[C@H](Cc1ccccc1)NC(=O)[C@H](CCCNC(=N)N)NC(=O)[C@H](CC(=O)O)NC(=O)CNC(=O)CNC(=O)CNC(=O)[C@H](CCCCN)NC(=O)[C@H](CS)NC(=O)[C@H](CC(C)C)NC(=O)[C@H](Cc1ccccc1)NC(=O)[C@H](CC(N)=O)NC(=O)CNC(=O)[C@H](Cc1ccccc1)NC(=O)[C@H](Cc1ccc(O)cc1)NC(=O)[C@@H](N)Cc1c[nH]c2ccccc12)C(=O)N[C@@H](Cc1c[nH]c2ccccc12)C(N)=O [msR4M-LG3]
[1]; [11]
  Kd: > 5000 nM

## H-WYFGNFLCKRRRDRFYPNDLW-NH2 [msR4M-LR3]
[5]
  Estimated solubility index by CD spectroscopy: >2× compared to × compared to msR4M-L1
[2]
  binding to CXCL12 (in words): good binding affinity for CXCL12
[4]
  solubility properties (in words): very good solubility properties

## CC(C)C[C@H](NC(=O)[C@H](CC(=O)O)NC(=O)[C@H](CC(N)=O)NC(=O)[C@@H]1CCCN1C(=O)[C@H](Cc1ccc(O)cc1)NC(=O)[C@H](Cc1ccccc1)NC(=O)[C@H](CCCNC(=N)N)NC(=O)[C@H](CC(=O)O)NC(=O)COCCNC(=O)COCCNC(=O)[C@H](CCCCN)NC(=O)[C@H](CS)NC(=O)[C@H](CC(C)C)NC(=O)[C@H](Cc1ccccc1)NC(=O)[C@H](CC(N)=O)NC(=O)CNC(=O)[C@H](Cc1ccccc1)NC(=O)[C@H](Cc1ccc(O)cc1)NC(=O)[C@@H](N)Cc1c[nH]c2ccccc12)C(=O)N[C@@H](Cc1c[nH]c2ccccc12)C(N)=O [msR4M-L5] (H-WYFGNFLCK[AEA][AEA]DRFYPNDLW-NH2)
[6]
  effect on MIF-triggered 3D monocyte migration: inhibit the MIF-mediated monocytes migration
[1]; [9]
  Kd: 41.8 nM
[1]; Binding affinity (fluorescence spectroscopic titration) Kd, Table 8, mimics with enhanced solubility
  Kd: 30 to 40 nM
[1]; [10]
  Kd: 14.3 nM
[5]
  Estimated solubility index by CD spectroscopy: >2× compared to × compared to msR4M-L1
[7]
  IC50: 69.7 nM
[2]
  binding to CXCL12 (in words): essentially no binding propensity for CXCL12
[3]
  Atherogenic inhibitory activity (Dil-LDL uptake): 30% of % of full-length msR4M-L1
[4]
  solubility properties (in words): favorable biophysical properties such as solubility

## H-WYFGNFLCKDDDDRFYPNDLW-NH2 [msR4M-LD3]
[6]
  effect on MIF-triggered 3D monocyte migration: inhibit the MIF-mediated monocytes migration
[6]; 3D migration, one experiment, read-out: IC50 of MIF-mediated monocyte migration
  IC50: 18.4 nM
[1]; [11]
  Kd: 247 nM
[5]
  Estimated solubility index by CD spectroscopy: >2× compared to × compared to msR4M-L1
[7]
  IC50: 1.4 nM
[2]
  binding to CXCL12 (in words): essentially no binding propensity for CXCL12
[4]
  solubility properties (in words): performing most superior

## CC[C@H](C)[C@H](NC(=O)[C@H](Cc1ccc(O)cc1)NC(=O)[C@H](CCCNC(=N)N)NC(=O)[C@H](CC(=O)O)NC(=O)CCCCCCCCCCCNC(=O)COCCOCCNC(=O)[C@H](CCCCN)NC(=O)[C@H](CS)NC(=O)[C@H](CC(C)C)NC(=O)[C@H](Cc1ccccc1)NC(=O)[C@H](CC(N)=O)NC(=O)CNC(=O)[C@H](Cc1ccccc1)NC(=O)[C@H](Cc1ccc(O)cc1)NC(=O)[C@H](Cc1c[nH]c2ccccc12)NC(=O)[C@H](CC(N)=O)NC(=O)[C@H](C)NC(=O)[C@@H](NC(=O)[C@H](C)NC(=O)[C@@H](N)CC(=O)O)C(C)C)C(=O)N[C@@H](CS)C(=O)N[C@@H](CC(=O)O)C(=O)N[C@@H](CCCNC(=N)N)C(=O)N[C@@H](Cc1ccccc1)C(=O)N[C@@H](Cc1ccc(O)cc1)C(=O)N1CCC[C@H]1C(=O)N[C@@H](CC(N)=O)C(=O)N[C@@H](CC(=O)O)C(=O)N[C@@H](CC(C)C)C(=O)N[C@@H](Cc1c[nH]c2ccccc12)C(=O)N[C@H](C(N)=O)C(C)C [msR4M-L2]
[8]
  inhibition of MIF-mediated B-cell chemotaxis: inhibits MIF-triggered B-lymphocyte chemotaxis; also recorded: fully blocked

## H-WYFGNFLCKKKKDRFYPNDLW-NH2 [msR4M-LK3]
[2]
  binding to CXCL12 (in words): good binding affinity for CXCL12
[4]
  solubility properties (in words): very good solubility properties

## CC(C)C[C@H](NC(=O)[C@H](CC(=O)O)NC(=O)[C@H](CC(N)=O)NC(=O)[C@@H]1CCCN1C(=O)[C@H](Cc1ccc(O)cc1)NC(=O)[C@H](Cc1ccccc1)NC(=O)[C@H](CCCNC(=N)N)NC(=O)[C@H](CC(=O)O)NC(=O)CCCCCCCCCCCNC(=O)CCCCCNC(=O)[C@H](CCCCN)NC(=O)[C@H](CS)NC(=O)[C@H](CC(C)C)NC(=O)[C@H](Cc1ccccc1)NC(=O)[C@H](CC(N)=O)NC(=O)CNC(=O)[C@H](Cc1ccccc1)NC(=O)[C@H](Cc1ccc(O)cc1)NC(=O)[C@@H](N)Cc1c[nH]c2ccccc12)C(=O)N[C@@H](Cc1c[nH]c2ccccc12)C(N)=O [msR4M-L3] (H-WYFGNFLCK[Ahx][12Ado]DRFYPNDLW-NH2)
[1]; [11]
  Kd: 11.7 nM
[1]; read-out: Binding affinity (fluorescence spectroscopic titration) Kd, Table 7, reconnected short mimics
  Kd: 14 nM
[1]; read-out: Fluos-ngm/MIF app. Kd (±SD), aqueous 1 × b, pH 7.4, 1% HFIP
  Kd: 44.4 nM
[2]
  binding to CXCL12 (in words): essentially no binding affinity for CXCL12
[3]
  Atherogenic inhibitory activity (Dil-LDL uptake): 80% of % of full-length msR4M-L1
[4]
  solubility properties (in words): less favorable solubility properties
